# Measurements from US9296734B2 (AMGEN INC., priority 2013, dated 2016).
# Where two headings read alike, the source gives them in different places.
# Columns and labels:
# [1] = system: Aβ40 in conditioned medium of cells stably expressing Amyloid Precursor Protein (APP); test: In vitro BACE cell-based assay (Aβ40 sandwich ELISA); settings: Homo sapiens
# How it was run: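 Aβ40 in supernatants was measured by time-resolved fluorescence sandwich ELISA using pAb40 capture and biotinylated 6E10 detection, with antibody incubations at 4 °C. Stable APP cells were exposed to compounds for 24 h in a 10-point series (top dose 100 or 10 µM, 0.1% DMSO). IC50 was fitted from the concentration-response.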
# Cathepsin D (Cat D) = Cathepsin D (Cat D) (Homo sapiens (Human), UniProt P07339); test: In vitro enzymatic Cathepsin D (Cat D) FRET assay; type: biochemical; settings: average; read-out: CatD IC50
# Sequence of Cathepsin D (Cat D) (P07339 65-412, species assumed): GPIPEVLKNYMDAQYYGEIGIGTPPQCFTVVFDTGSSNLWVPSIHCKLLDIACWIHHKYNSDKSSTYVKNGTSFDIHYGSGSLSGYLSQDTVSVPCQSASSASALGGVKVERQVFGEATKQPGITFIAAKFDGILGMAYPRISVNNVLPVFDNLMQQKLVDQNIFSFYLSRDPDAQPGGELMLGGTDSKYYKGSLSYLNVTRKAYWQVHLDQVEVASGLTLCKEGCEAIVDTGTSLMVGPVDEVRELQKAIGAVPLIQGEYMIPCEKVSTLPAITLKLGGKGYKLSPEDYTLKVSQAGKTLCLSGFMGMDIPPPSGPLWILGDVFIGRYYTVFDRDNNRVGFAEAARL
# How it was run: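 CHO-expressed recombinant Cat D cleaves a fluorophore/quencher FRET peptide (20 nM) in 0.05 M citrate pH 3.5, 5 mM CHAPS, 10% DMSO final, over 1 h. Tris addition neutralizes pH to stop the reaction; fluorescence read at excitation 500 nm, emission 580 nm.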
# [2] = molecular target: Beta Secretase enzyme (BACE) (Homo sapiens (Human), UniProt P56817); test: In vitro enzymatic BACE FRET assay; type: biochemical; settings: average; read-out: BACE 1 FRET assay IC50
# Sequence of Beta Secretase enzyme (BACE) (P56817 46-501): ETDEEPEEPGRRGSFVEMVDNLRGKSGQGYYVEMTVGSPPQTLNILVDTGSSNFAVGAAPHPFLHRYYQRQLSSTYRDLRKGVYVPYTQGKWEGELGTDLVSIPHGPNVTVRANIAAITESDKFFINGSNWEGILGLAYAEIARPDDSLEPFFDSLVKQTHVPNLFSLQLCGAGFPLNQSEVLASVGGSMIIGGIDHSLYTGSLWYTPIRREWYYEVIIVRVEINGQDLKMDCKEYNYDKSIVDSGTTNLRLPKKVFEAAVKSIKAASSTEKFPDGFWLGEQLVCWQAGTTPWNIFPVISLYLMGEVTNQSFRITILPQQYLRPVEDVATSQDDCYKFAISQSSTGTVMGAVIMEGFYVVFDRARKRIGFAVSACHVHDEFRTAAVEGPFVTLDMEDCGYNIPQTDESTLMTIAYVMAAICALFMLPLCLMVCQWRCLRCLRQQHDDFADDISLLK
# How it was run: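 A quenched fluorophore-peptide spanning the BACE cleavage site served as substrate at 50 nM, with one-hour incubation in pH 4.2 acetate buffer containing 100 uM genapol and 10% DMSO final. Fluorescence was measured after quenching with Tris to neutral pH.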
# [3] = HEK293, HEK cells, average, read-out: HEK cell assay IC50
# [4] = HEK293, read-out: HEK cell assay IC50
Structure (SMILES),"IC50 [1, 3] [nM]",IC50 (Cathepsin D (Cat D)) [nM],IC50 [2] [nM],"IC50 [1, 4] [nM]"
"C[C@@]1(c2cc(NC(=O)c3ncc(C#N)cc3F)cc(F)c2F)C[C@@H](C(F)(F)F)OC(N)=N1 [Example 205, N-(3-((4S,6S)-2-amino-4-methyl-6-(trifluoromethyl)-5,6-dihydro-4H-1,3-oxazin-4-yl)-4,5-difluorophenyl)-5-cyano-3-fluoropicolinamide]",10,> 400000,39,
"C[C@@]1(c2cc(NC(=O)c3ccc(C#N)cn3)cc(Cl)c2F)C[C@@H](C(F)(F)F)OC(N)=N1 [Example 206, N-(3-((4S,6S)-2-amino-4-methyl-6-(trifluoromethyl)-5,6-dihydro-4H-1,3-oxazin-4-yl)-5-chloro-4-fluorophenyl)-5-cyanopicolinamide]",12,488000,23,
"COc1cnc(C(=O)Nc2cc(Cl)c(F)c([C@]3(C)C[C@@H](C(F)(F)F)OC(N)=N3)c2)cn1 [Example 208, N-(3-((4S,6S)-2-amino-4-methyl-6-(trifluoromethyl)-5,6-dihydro-4H-1,3-oxazin-4-yl)-5-chloro-4-fluorophenyl)-5-methoxypyrazine-2-carboxamide]",,394000,12,3
"C[C@@]1(c2cc(NC(=O)c3cnc(C(F)F)cn3)cc(Cl)c2F)C[C@@H](C(F)(F)F)OC(N)=N1 [Example 211, N-(3-((4S,6S)-2-amino-4-methyl-6-(trifluoromethyl)-5,6-dihydro-4H-1,3-oxazin-4-yl)-5-chloro-4-fluorophenyl)-5-(difluoromethyl)pyrazine-2-carboxamide]",,604000,62,47
"C[C@@]1(c2cc(NC(=O)c3ccc(Br)cn3)cc(Cl)c2F)C[C@@H](C(F)(F)F)OC(N)=N1 [Example 213, N-(3-((4S,6S)-2-amino-4-methyl-6-(trifluoromethyl)-5,6-dihydro-4H-1,3-oxazin-4-yl)-5-chloro-4-fluorophenyl)-5-bromopicolinamide]",31.9,739000,10,
"Cc1cc(OCC(F)(F)F)cnc1C(=O)Nc1cc(C)c(F)c([C@]2(CF)C[C@@H](C(F)(F)F)OC(N)=N2)c1 [Example 220, N-(3-((4S,6S)-2-amino-4-(fluoromethyl)-6-(trifluoromethyl)-5,6-dihydro-4H-1,3-oxazin-4-yl)-4-fluoro-5-methylphenyl)-3-methyl-5-(2,2,2-trifluoroethoxy)picolinamide]",,263000,66,429
"COc1cccnc1Nc1cc(F)c(F)c([C@]2(C)C[C@@H](C(F)(F)F)OC(N)=N2)c1 [Example 231, (4S,6S)-4-(2,3-difluoro-5-((3-methoxypyridin-2-yl)amino)phenyl)-4-methyl-6-(trifluoromethyl)-5,6-dihydro-4H-1,3-oxazin-2-amine]",162,282000,177,
"N#Cc1cnc(C(=O)Nc2cc(F)c(F)c([C@]3(CF)C[C@@H](C(F)(F)F)OC(N)=N3)c2)c(F)c1 [Example 234, N-(3-((4S,6S)-2-amino-4-(fluoromethyl)-6-(trifluoromethyl)-5,6-dihydro-4H-1,3-oxazin-4-yl)-4,5-difluorophenyl)-5-cyano-3-fluoropicolinamide]",,> 400000,38,57
"NC1=N[C@](CF)(c2cc(Oc3cc(-c4ccccc4)cc(Cl)n3)ccc2F)C[C@@H](C(F)(F)F)O1 [Example 235, (4S,6S)-4-(5-((6-chloro-4-phenylpyridin-2-yl)oxy)-2-fluorophenyl)-4-(fluoromethyl)-6-(trifluoromethyl)-5,6-dihydro-4H-1,3-oxazin-2-amine]",8170,> 133000,> 40000,
"C[C@@]1(c2cc(NC(=O)c3ccc(C#N)cn3)cc(F)c2Cl)C[C@@H](C(F)(F)F)OC(N)=N1 [Example 238, N-(3-((4S,6S)-2-amino-4-methyl-6-(trifluoromethyl)-5,6-dihydro-4H-1,3-oxazin-4-yl)-4-chloro-5-fluorophenyl)-5-cyanopicolinamide]",6,131000,8,

# Second part, led by results:
"IC50 [1, 3] [nM]",IC50 (Cathepsin D (Cat D)) [nM],IC50 [2] [nM],Structure (SMILES),"IC50 [1, 4] [nM]"
35,622000,15,"COc1ccc(C(=O)Nc2cc(Cl)c(F)c([C@]3(C)C[C@@H](C(F)(F)F)OC(N)=N3)c2)nc1 [Example 209, N-(3-((4S,6S)-2-amino-4-methyl-6-(trifluoromethyl)-5,6-dihydro-4H-1,3-oxazin-4-yl)-5-chloro-4-fluorophenyl)-5-methoxypicolinamide]",
1,554000,< 2,"C#CCOc1cnc(C(=O)Nc2cc(Cl)c(F)c([C@]3(C)C[C@@H](C(F)(F)F)OC(N)=N3)c2)cn1 [Example 212, N-(3-((4S,6S)-2-amino-4-methyl-6-(trifluoromethyl)-5,6-dihydro-4H-1,3-oxazin-4-yl)-5-chloro-4-fluorophenyl)-5-(prop-2-yn-1-yloxy)pyrazine-2-carboxamide]",
29,> 400000,8,"C[C@@]1(c2cc(NC(=O)c3cnc(OCC(F)(F)F)cn3)cc(Cl)c2F)C[C@@H](C(F)(F)F)OC(N)=N1 [Example 214, N-(3-((4S,6S)-2-amino-4-methyl-6-(trifluoromethyl)-5,6-dihydro-4H-1,3-oxazin-4-yl)-5-chloro-4-fluorophenyl)-5-(2,2,2-trifluoroethoxy)pyrazine-2-carboxamide]",
38,634000,81,"COc1cnc(C(=O)Nc2cc(C)c(F)c([C@]3(CF)C[C@@H](C(F)(F)F)OC(N)=N3)c2)c(C)n1 [Example 217, N-(3-((4S,6S)-2-amino-4-(fluoromethyl)-6-(trifluoromethyl)-5,6-dihydro-4H-1,3-oxazin-4-yl)-4-fluoro-5-methylphenyl)-5-methoxy-3-methylpyrazine-2-carboxamide]",
2,188000,1,"C#CCOc1cnc(C(=O)Nc2cc(C)c(F)c([C@]3(CF)C[C@@H](C(F)(F)F)OC(N)=N3)c2)cn1 [Example 218, N-(3-((4S,6S)-2-amino-4-(fluoromethyl)-6-(trifluoromethyl)-5,6-dihydro-4H-1,3-oxazin-4-yl)-4-fluoro-5-methylphenyl)-5-(prop-2-yn-1-yloxy)pyrazine-2-carboxamide]",
11,> 400000,20,"Cc1cc(C#N)cnc1C(=O)Nc1cc(C)c(F)c([C@]2(CF)C[C@@H](C(F)(F)F)OC(N)=N2)c1 [Example 219, N-(3-((4S,6S)-2-amino-4-(fluoromethyl)-6-(trifluoromethyl)-5,6-dihydro-4H-1,3-oxazin-4-yl)-4-fluoro-5-methylphenyl)-5-cyano-3-methylpicolinamide]",
29,> 400000,91,"COc1cc(Cl)cnc1C(=O)Nc1cc(C)c(F)c([C@]2(CF)C[C@@H](C(F)(F)F)OC(N)=N2)c1 [Example 222, N-(3-((4S,6S)-2-amino-4-(fluoromethyl)-6-(trifluoromethyl)-5,6-dihydro-4H-1,3-oxazin-4-yl)-4-fluoro-5-methylphenyl)-5-chloro-3-methoxypicolinamide]",
24,> 400000,57,"Cc1cc(NC(=O)c2ccc(C#N)cn2)cc([C@]2(CF)C[C@@H](C(F)(F)F)OC(N)=N2)c1F [Example 225, N-(3-((4S,6S)-2-amino-4-(fluoromethyl)-6-(trifluoromethyl)-5,6-dihydro-4H-1,3-oxazin-4-yl)-4-fluoro-5-methylphenyl)-5-cyanopicolinamide]",
49,780000,48,"COc1cnc(C(=O)Nc2cc(C)c(F)c([C@]3(CF)C[C@@H](C(F)(F)F)OC(N)=N3)c2)c(C)c1 [Example 226, N-(3-((4S,6S)-2-amino-4-(fluoromethyl)-6-(trifluoromethyl)-5,6-dihydro-4H-1,3-oxazin-4-yl)-4-fluoro-5-methylphenyl)-5-methoxy-3-methylpicolinamide]",
28,775000,32,"Cc1cc(OC(F)F)cnc1C(=O)Nc1cc(C)c(F)c([C@]2(CF)C[C@@H](C(F)(F)F)OC(N)=N2)c1 [Example 228, N-(3-((4S,6S)-2-amino-4-(fluoromethyl)-6-(trifluoromethyl)-5,6-dihydro-4H-1,3-oxazin-4-yl)-4-fluoro-5-methylphenyl)-5-(difluoromethoxy)-3-methylpicolinamide]",
57,> 400000,49,"Cc1cc(Nc2ncnc3cc(Cl)cnc23)cc([C@]2(CF)C[C@@H](C(F)(F)F)OC(N)=N2)c1F [Example 230, (4S,6S)-4-(5-((7-chloropyrido[3,2-d]pyrimidin-4-yl)amino)-2-fluoro-3-methylphenyl)-4-(fluoromethyl)-6-(trifluoromethyl)-5,6-dihydro-4H-1,3-oxazin-2-amine]",
55,568000,16,"Cc1cc(C#N)cnc1C(=O)Nc1cc(F)c(F)c([C@]2(CF)C[C@@H](C(F)(F)F)OC(N)=N2)c1 [Example 232, N-(3-((4S,6S)-2-amino-4-(fluoromethyl)-6-(trifluoromethyl)-5,6-dihydro-4H-1,3-oxazin-4-yl)-4,5-difluorophenyl)-5-cyano-3-methylpicolinamide]",
